Source: patent US8044022B2, “Hyaluronic acid binding peptides enhance host defense against pathogenic bacteria” (priority 2005, dated 2011)
Non-standard residues stand in square brackets, D forms with d. Residues, ends and D or L forms follow the SMILES beside them. No end group written: not given here.

How the values were obtained:
human red blood cells = assay: Hemolytic activity, hemoglobin release from red blood cells (12 hour protocol)
Description: Determination of hemolytic activity is measured through the release of hemoglobin from human red blood cells as measured spectrophotometrically.
Briefly, a dilution series of the peptide was prepared in two-fold dilutions from 512 to 1 μg/mL. Triplicate determinations of each peptide concentration were added to 1% human red blood cells and incubated for 12 hours at 37° C. The negative control for hemolysis consisted of 1% red blood cells with no peptide added. The positive control for hemolysis was 1% red blood cells in 0.15M NH4Cl. Hemoglobin release was measured at an absorbance of 562 nm.
Percent hemolysis is calculated as the ratio of the optical density (OD) of the peptide relative to the OD of the positive control for hemolysis.

[1] = Surface plasmon resonance (Biacore T-100) binding of peptides to immobilized biotin-labeled hyaluronic acid; set-up: species or system rooster; details: SPR, biotin-HA immobilized on streptavidin chip
Description: Surface plasmon resonance spectroscopy (SPR) studies were performed on a Biacore T-100 to quantitate the binding of peptides to hyaluronic acid (HA). Biotin-labeled hyaluronic acid (Sigma B1557, hyaluron sodium salt from rooster comb with >97% purity, average approximately 850 kDd, 98% labeled) was immobilized on one of the four flow cells of a streptavidin-coated series S sensor chip SA. […] Peptides were then injected across the surface and the degree of binding interaction is measured in response units (RU).
The average net binding for HABP35 to HA was 399±77 RU or significant binding. The other HA binding peptides also had positive RU values.

S. aureus strain PS80 = assay: Mouse model of S. aureus surgical wound infection; format: in vivo, C57BL6 mice; details: 100 μg into wound at time of challenge with 10^2 CFU; 3 days later
Description: Bacterial strains. S. aureus strain PS80 (serotype 8) was obtained from the American Type Culture collection (#27700) and is a potent inducer of intraabdominal abscess formation. S. aureus COL is a methicillin resistant strain that produces a serotype 5 capsule. Staphylococci were cultivated for 24 h at 37° C. on Columbia agar (Difco Laboratories, Detroit, Mich.) supplemented with 2% NaCl.
Mouse model of S. aureus wound infection. Mice (C57BL6, male, 6-8 wk old) were obtained from Jackson Laboratories (Bar Harbor, Me.). Groups of mice (N=4/group/experiment) were anesthetized with 100 mg/kg ketamine and 10 mg/kg xylazine, their right thighs were shaved, and the surgical area was disinfected with iodine and 70% ethanol. An incision was made in the skin to expose the thigh muscle, and a 1-cm incision was made with a scalpel into the thigh muscle to the depth of the bone. The muscle was then closed with one 4-0 silk suture, and 10 μl of a S. aureus suspension ranging in dose from 10^2 to 10^4 CFU was introduced into the incision under the suture. The skin was closed with four additional Prolene sutures. The mice were euthanized at 3 days post-surgery. The wounded muscle tissue was excised, weighed (˜0.08 g), and homogenized in 1 ml of tryptic soy broth. Serial dilutions of the homogenates were plated in duplicate and results were expressed as CFU/g tissue. Peptides were administered to animals in two ways. For most experiments, HABPs were solubilized in PBS and administered with a pipet into the wound in a 10 μl volume following challenge with bacteria. A 100 μg dose was used for most experiments. For therapeutic studies, peptide was administered via a 1 ml tuberculin syringe fitted with a 25 gauge needle in a 0.25 ml volume injected into the thigh muscle containing the wound distal from the incision site.
Gross pathology and histologic analysis of host response. […] Histological examination of these wounds confirmed these findings. Muscle tissue was harvested from mice at designated intervals post-surgery, fixed in 10% buffered formalin, and mounted in paraffin; 5 to 6-μm sections were cut and stained with hematoxylin and eosin for microscopic examination. […] The cellular infiltrate was primarily comprised of PMNs and fibrin.
Statistical analyses. All animal experiments were performed at least two times and the data pooled. Comparison of S. aureus CFU/g tissue was made by the Welch modification of the unpaired Student t test (InStat, GraphPad Software, San Diego, Calif.).

S. equi = assay: Bacterial translocation through polarized keratinocyte cultures (Transwell); format: cell-based, Streptococcus equi; details: 100 μg/ml; vs PBS or SCRM
Description: (§1) Cell cultures: For the preparation of in vitro keratinocyte cultures, human primary OKP7 cells were derived from the oropharynx. Keratinocytes were seeded at 5×10^5 cells per well onto polycarbonate Transwell membrane supports (12 well plates, 3.0 μm pore size; Costar) or tissue culture treated plastic ware and cultured for 5-10 days at 37° C. with 5% humidified CO2 in cSFM medium with daily medium changes. Once confluent, the calcium concentration of the cSFM was increased to 1.2 mM and cells were cultured for 2 more days, before the integrity of the monolayer was assessed by measuring permeability to sodium fluorescein, and in some experiments, by measuring transepithelial electrical resistance.
(§2) Infection procedures: Keratinocyte layer cultures in Transwell inserts were inoculated in the upper chamber with GAS, S. equi, S. uberis, and P. multocida at a multiplicity of infection (MOI) of 1 bacterium per keratinocyte in the presence or absence of HABP01 or SCRM. Infected cultures were incubated at 37° C. with 5% CO2 for the desired time. In translocation experiments, Transwell inserts containing the keratinocytes were moved to new wells containing fresh medium every 2 hours to prevent overgrowth of bacteria that had translocated through the keratinocytes layer to the lower chamber. Bacterial translocation was quantified by culturing medium from the lower chamber at 2-hour intervals. […]

Staphylococcus aureus = assay: as above; format: cell-based; details: 100 μg/ml; vs PBS or SCRM
[2] = tested on: Wild Type GAS (HA encapsulated); assay: Fluorometry binding of FITC-conjugated peptide to encapsulated GAS; set-up: species or system Group A Streptococcus
Description: (§3) Bacterial strains: GAS strain 950771 is a moderately encapsulated M3 clinical isolate from a child with post-varicella necrotizing fasciitis and sepsis, and an isogenic capsule deficient mutant, 188, derived from 950771. GAS were grown in Todd-Hewitt broth (Difco) to mid-exponential phase OD650 of 0.15 at 37° C. for all experiments. Commercially available trypticase-soy agar medium supplemented with 5% vol/vol sheep blood (BAP)(PML Microbiologicals, British Columbia, Canada) were used for all plate cultures. S. equi s(ATCC 53185) and P. multocida (ATCC 11039) were purchased from ATCC and cultured as recommended. Briefly, S. equi was cultured in Todd-Hewitt broth and S. uberis and P. multocida were cultured in Brain heart infusion (Difco) to OD 650 of 0.15 at 37° C. Quantitative cultures were performed in parallel with each experiment to verify the multiplicity of infection (MOI) of the inoculum.
(§4) Binding of HABP to HA and HA-encapsulated bacteria: To assess whether HABP are able to associate specifically with the GAS capsule, bacteria were cultured to mid-log phase, for maximal HA capsule expression, and incubated with either 10 μg/ml of FITC-conjugated HABP01 or SCRM, with purified HA at 1 mg/ml, as a positive control, or an isogenic mutant strain of GAS deficient in HA capsule, as a negative control. A GAS-specific antibody was used to control for the number of bacteria per well.

GAS [3] = assay: Bacterial translocation through polarized keratinocyte cultures (Transwell); format: cell-based, Group A Streptococcus; details: vs PBS or SCRM
Description: as §1
Infection procedures: Keratinocyte layer cultures in Transwell inserts were inoculated in the upper chamber with GAS, S. equi, S. uberis, and P. multocida at a multiplicity of infection (MOI) of 1 bacterium per keratinocyte in the presence or absence of HABP01 or SCRM. Infected cultures were incubated at 37° C. with 5% CO2 for the desired time. In translocation experiments, Transwell inserts containing the keratinocytes were moved to new wells containing fresh medium every 2 hours to prevent overgrowth of bacteria that had translocated through the keratinocytes layer to the lower chamber. Bacterial translocation was quantified by culturing medium from the lower chamber at 2-hour intervals.
Bacterial translocation studies were performed to assess the impact of HABP01 on bacterial paracellular translocation through polarized keratinocyte cultures.
Incubation of GAS in the presence of HABP33, HABP35 and HABP42, also delayed GAS translocation. At two hours after the addition of GAS to the keratinocytes, approximately 530 CFU of GAS were detected in the lower level in cultures treated with PBS or SCRM peptide.

[4] = Fluorometry binding of FITC-conjugated peptide to purified HA in well; set-up: species or system rooster
Description: Lyophilized synthetic peptides were resuspended in PBS pH7.4 prior to use in either in vitro or in vivo experiments. Fluorescein conjugation of HABP01 and SCRM was performed using 5,6 carboxyfluorescein, succinimidyl ester (5,6 FAM) (Molecular Probes, Portland, Oreg.) as per manufacturer's instructions and separated on a Sephadex G-25 column (Amersham, Piscataway, N.J.). Purified, high molecular weight rooster comb HA (Sigma-Aldrich, St Louis, Mo.) was used as a positive control for BP binding.
as §4

[5] = tested on: GAS internalization by keratinocytes; assay: Bacterial internalization by keratinocyte monolayers; format: cell-based, Group A Streptococcus / human keratinocytes; details: 100 μg/ml, 4 hours
Description: Effect of HABP on bacterial internalization by keratinocytes. Encapsulated GAS are poorly internalized by keratinocytes. Yet in the presence of HABPs, intracellular encapsulated GAS are observed by microscopy. To quantify this internalization, keratinocyte monolayers were infected with HA-encapsulated bacteria in the presence of 100 μg/ml of either HABP01 or SCRM for 4 hours. Penicillin and gentamicin were added at 3 hours to kill extracellular bacteria and cells were harvested. Bacteria treated with HABP01 were internalized approximately 40-fold more efficiently than SCRM-treated or untreated samples, and at similar levels to those obtained with acapsular GAS. Internalization of acapsular GAS was unaffected by either peptide.

P. multocida = assay: Bacterial translocation through polarized keratinocyte cultures (Transwell); format: cell-based, Pasteurella multocida; details: 100 μg/ml; vs PBS or SCRM
Description: as §1, §2

Acapsular GAS = assay: Fluorometry binding of FITC-conjugated peptide to capsule-deficient GAS; set-up: species or system Group A Streptococcus
Description: as §3, §4

GAS [6] = assay: Opsonophagocytic assay with human neutrophils; format: cell-based, Group A Streptococcus; details: 50 μg/ml, 2 hours incubation with human neutrophils, 10% absorbed human serum
Description: Encapsulated GAS are resistant to killing by neutrophils in opsonophagocytic assays in the absence of antibodies that bind the bacterial surface. HABPs binding to the bacterial surface may facilitate neutrophil cytotoxicity. Opsonophagocytic assays were performed wherein GAS were incubated with 50 μg/ml of SCRM, HABP01 or HABP35 and mixed with human neutrophils in medium containing 10% absorbed human serum. Aliquots (25 μl) for quantitative culture were withdrawn immediately after mixing neutrophil with GAS and after 2 hr incubation at 37° C. The log increase or decrease in CFU's was calculated. After 2 hours of incubation, there was about a 1.5 log increase in CFU's for GAS treated with PBS or SCRM.

[7] = fluorometry, HABP35 also confocal microscopy, data not shown

Which hemolytic activity (human red blood cells; highest concentration tested, 512 μg/mL, 1% human red blood cells, 12 hours, 37° C.) does the source give for `CC[C@H](C)[C@H](NC(=O)[C@H](CCCCN)NC(=O)[C@H](CCC(N)=O)NC(=O)[C@H](CCCCN)NC(=O)[C@@H](N)CC(C)C)C(=O)N[C@@H](CCCCN)C(=O)N[C@@H](Cc1c[nH]cn1)C(=O)N[C@H](C(=O)N[C@H](C(=O)N[C@@H](CCCCN)C(=O)N[C@@H](CC(C)C)C(=O)N[C@@H](CCCCN)C(=O)N[C@H](C(=O)N[C@H](C(=O)N[C@H](C(=O)N[C@@H](CCCCN)C(=O)N[C@@H](CC(C)C)C(=O)N[C@@H](CCCNC(=N)N)C(=O)N[C@@H](CO)C(=O)N[C@@H](CCC(N)=O)C(=O)N[C@@H](CC(C)C)C(=O)N[C@H](C(=O)N[C@@H](CCCCN)C(=O)N[C@@H](CCCNC(=N)N)C(=O)N[C@@H](CCCCN)C(=O)N[C@@H](CCC(N)=O)C(=O)N[C@@H](CC(N)=O)C(N)=O)C(C)C)C(C)C)C(C)C)C(C)C)C(C)C)C(C)C` [HABP35] (H-LKQKIKHVVKLKVVVKLRSQLVKRKQN-NH2) here?
Its hemolytic activity is “minor hemolytic activity”.

Which results are given for `CC[C@H](C)[C@H](NC(=O)CN)C(=O)NCC(=O)N[C@@H](C)C(=O)N[C@H](C(=O)N[C@@H](CC(C)C)C(=O)N[C@@H](CCCCN)C(=O)N[C@H](C(=O)N[C@@H](CC(C)C)C(=O)N[C@H](C(=O)N[C@H](C(=O)NCC(=O)N[C@@H](CC(C)C)C(=O)N1CCC[C@H]1C(=O)N[C@@H](C)C(=O)N[C@@H](CC(C)C)C(=O)N[C@H](C(=O)N[C@@H](CO)C(=O)N[C@@H](Cc1c[nH]c2ccccc12)C(=O)N[C@H](C(=O)N[C@@H](CCCCN)C(=O)N[C@@H](CCCNC(=N)N)C(=O)N[C@@H](CCCCN)C(=O)N[C@@H](CCCNC(=N)N)C(=O)N[C@@H](CCC(N)=O)C(=O)N[C@@H](CCC(N)=O)C(N)=O)[C@@H](C)CC)[C@@H](C)CC)[C@@H](C)O)[C@@H](C)O)C(C)C)C(C)C` [Melittin]?
average net binding to HA [1]: −503±5 RU; concentration giving levels of hemolysis comparable to HABP35 at 512 μg/mL (human red blood cells; 1% human red blood cells, 12 hours): less than 1 μg/mL; potency as a hemolytic agent relative to HABP35 (human red blood cells; comparison with HABP35): more than 500 times

Which “bacterial burden at the wound site compared with PBS” value (S. aureus strain PS80) does the source give for “STMMSRSHKTRSHHV (all d isomers) ([dS][dT][dM][dM][dS][dR][dS][dH][dK][dT][dR][dS][dH][dH][dV]-NH2) [HABP42]” here?
The value was “decrease in bacterial burden”.

For STMMSRSHKTRSHHV [HABP01], which “reduction in translocation of S. equi” value (S. equi) is on record?
Its value is 98%.

And the “reduction in translocation of Staphylococcus aureus” value (Staphylococcus aureus)?
The value was 73%.

What about the “binding to encapsulated GAS (in words)” value [2, 7] of the same molecule?
Its value is “bound specifically”.

And the Relative binding ([2]; substrate in well: Wild Type GAS, 10 μg/ml FITC-conjugated peptide)?
Its Relative binding is 11840 ± 230 relative fluorescent units.

And the “reduction in the translocation of GAS across an intact keratinocyte culture” value (GAS [3]; 100 μg/ml, treatment of keratinocytes or bacteria)?
Its value is 75-85%.

And the “binding to purified HA (in words)” value ([4]; fluorometry)?
Its value is “bound specifically”.

And the Relative binding ([4]; substrate in well: HA (1 mg/ml), 10 μg/ml FITC-conjugated peptide)?
Its Relative binding is 9640 ± 360 relative fluorescent units.

And the “internalization of HA-encapsulated bacteria by keratinocytes relative to SCRM-treated or untreated samples” value [5]?
Its value is “approximately 40 fold”.

What about the “reduction in translocation of P. multocida” value (P. multocida) of the same molecule?
The value was 98%.

And the “binding to unencapsulated GAS (in words)” value (Acapsular GAS; [7])?
The value was “not to unencapsulated GAS”.

What about the Relative binding (Acapsular GAS; substrate in well: Acapsular GAS, 10 μg/ml FITC-conjugated peptide) of the same molecule?
Its Relative binding is 1940 ± 70 relative fluorescent units.

And the “log increase in CFU's” value (GAS [6])?
The value was “over 1 log”.

With “VSKLRSQLVKRKQN (VSKLRSQLVKRKQN-NH2) [HABP33]” as the molecule, how does the “decrease in the numbers of translocating GAS bacteria” value (GAS [3]; two hours after addition of GAS) read?
Its value is about 90%.
